From ChEMBL document CHEMBL5331068, “Briarane-type diterpenoids, the inhibitors of osteoclast formation by interrupting Keap1-Nrf2 interaction and activating Nrf2 pathway” (Eur J Med Chem, 2023)
Activity calls are given as the source filed them. No cut-off for these calls is given here.

Key:
[1] = molecular target: T1, Nuclear factor erythroid 2-related factor 2 (Mus musculus) (UniProt Q60795); assay: Stabilization of Nrf2 in mouse RAW264.7 cells assessed as increase in Nrf2 protein level preincubated with compound for 6 hrs followed by CHX addition and measured after 45 mins by Western blot analysis; format: cell-based; conditions: time 405.0 min
T1 sequence (whole entry): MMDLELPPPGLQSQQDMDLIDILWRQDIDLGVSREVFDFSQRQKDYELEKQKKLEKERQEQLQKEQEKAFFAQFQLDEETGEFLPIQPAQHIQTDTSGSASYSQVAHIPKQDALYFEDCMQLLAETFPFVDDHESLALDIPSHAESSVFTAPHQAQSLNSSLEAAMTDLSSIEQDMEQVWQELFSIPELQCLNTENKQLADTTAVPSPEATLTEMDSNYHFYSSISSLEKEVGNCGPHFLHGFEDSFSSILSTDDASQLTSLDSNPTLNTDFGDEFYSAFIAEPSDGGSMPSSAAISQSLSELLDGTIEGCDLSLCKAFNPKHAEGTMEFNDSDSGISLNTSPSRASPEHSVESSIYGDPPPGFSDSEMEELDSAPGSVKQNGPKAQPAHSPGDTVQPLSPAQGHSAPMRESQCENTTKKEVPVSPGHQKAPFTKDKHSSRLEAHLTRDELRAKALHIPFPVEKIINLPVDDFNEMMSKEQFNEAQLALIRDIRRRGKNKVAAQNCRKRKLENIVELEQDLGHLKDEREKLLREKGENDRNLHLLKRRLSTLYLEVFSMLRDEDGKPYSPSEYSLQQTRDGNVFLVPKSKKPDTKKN

[2] = molecular target: T1, Nuclear factor erythroid 2-related factor 2 (Mus musculus); assay: Stabilization of Nrf2 in mouse RAW264.7 cells assessed as decrease in Nrf2 ubiquitination at 10 uM incubated for 48 hrs by Western blot based Co-immunoprecipitation analysis; format: cell-based
[3] = molecular target: Transcription factor p65 (Mus musculus) (UniProt Q04207); assay: Inhibition of RANKL-induced p65 NF-kappaB phosphorylation in C57BL/6 mouse BMDM cells transfected with Nrf2 siRNA at 10 uM incubated for 60 mins by Western blot analysis; format: cell-based
BMDM [4] = assay: Anti-osteoclastogenesis activity in C57BL/6 mouse BMDM cells assessed as inhibition of RANKL-induced osteoclastogenesis at 10 uM incubated for 7 days in the presence of M-CSF by TRAP-staining based microscopic analysis relative to control; format: functional; conditions: C57BL/6, BMDM, 168 h, time 7 day
RAW264.7 = assay: Anti-osteoclastogenesis activity in RANKL-induced mouse RAW264.7 cells transfected with Nrf2 siRNA assessed as increase in HO-1 expression level incubated for 3 days by Western blot analysis; format: functional, cell-based; conditions: time 3.0 day
BMDM [5] = assay: Anti-osteoclastogenesis activity in RANKL-induced C57BL/6 mouse BMDM cells assessed as downregulation of NFATc1 mRNA expression at 5 to 10 uM by qRT-PCR analysis; format: functional, cell-based; conditions: dose 5-10 µM
BMDM [6] = assay: Anti-osteoclastogenesis activity in RANKL-induced C57BL/6 mouse BMDM cells assessed as suppression of late stage osteoclast differentiation at 10 uM incubated from day 3 to day 5 in the presence of M-CSF by TRAP-staining based microscopic analysis; format: functional, cell-based; conditions: time 2.0 day
Danio rerio = assay: Anti osteoporosis activity in prednisone induced AB Zebrafish model of osteopenia assessed as increase in bone mineralization at 5 to 10 uM administered after 3 days post fertilization and measured after 6 days by Alizarin red staining based analysis; format: functional, organism-based; conditions: dose 5-10 µM, time 6.0 day
[7] = molecular target: MAP kinase p38 (Mus musculus) (UniProt P47811+O08911+Q9WUI1+Q9Z1B7); assay: Inhibition of RANKL-induced p38 MAPK phosphorylation in C57BL/6 mouse BMDM cells incubated for 60 mins by Western blot analysis; format: cell-based
BMDM [8] = assay: Anti-osteoclastogenesis activity in RANKL-induced C57BL/6 mouse BMDM cells assessed as increase in nuclear Nrf2 level at 5 to 10 uM in the presence of M-CSF by Western blot analysis; format: functional, cell-based; conditions: dose 5-10 µM
[9] = Inhibition of RANKL-induced ERK phosphorylation in C57BL/6 mouse BMDM cells transfected with Nrf2 siRNA at 10 uM incubated for 60 mins by Western blot analysis; format: cell-based
BMDM [10] = assay: Anti-osteoclastogenesis activity in RANKL-induced C57BL/6 mouse BMDM cells assessed as downregulation of MMP-9 mRNA expression at 5 to 10 uM by qRT-PCR analysis; format: functional, cell-based; conditions: dose 5-10 µM
BMDM [11] = assay: Anti-osteoclastogenesis activity in RANKL-induced C57BL/6 mouse BMDM cells assessed as increase in NQO-1 expression at 5 to 10 uM in the presence of M-CSF by Western blot analysis; format: functional, cell-based; conditions: dose 5-10 µM
BMDM [12] = assay: Anti-osteoclastogenesis activity in RANKL-induced C57BL/6 mouse BMDM cells assessed as downregulation of cathepsin K mRNA expression at 5 to 10 uM by qRT-PCR analysis; format: functional, cell-based; conditions: dose 5-10 µM
[13] = Inhibition of RANKL-induced ERK phosphorylation in C57BL/6 mouse BMDM cells incubated for 60 mins by Western blot analysis; format: cell-based

Transcription factor p65 (Mus musculus), sequence (Q04207 whole entry): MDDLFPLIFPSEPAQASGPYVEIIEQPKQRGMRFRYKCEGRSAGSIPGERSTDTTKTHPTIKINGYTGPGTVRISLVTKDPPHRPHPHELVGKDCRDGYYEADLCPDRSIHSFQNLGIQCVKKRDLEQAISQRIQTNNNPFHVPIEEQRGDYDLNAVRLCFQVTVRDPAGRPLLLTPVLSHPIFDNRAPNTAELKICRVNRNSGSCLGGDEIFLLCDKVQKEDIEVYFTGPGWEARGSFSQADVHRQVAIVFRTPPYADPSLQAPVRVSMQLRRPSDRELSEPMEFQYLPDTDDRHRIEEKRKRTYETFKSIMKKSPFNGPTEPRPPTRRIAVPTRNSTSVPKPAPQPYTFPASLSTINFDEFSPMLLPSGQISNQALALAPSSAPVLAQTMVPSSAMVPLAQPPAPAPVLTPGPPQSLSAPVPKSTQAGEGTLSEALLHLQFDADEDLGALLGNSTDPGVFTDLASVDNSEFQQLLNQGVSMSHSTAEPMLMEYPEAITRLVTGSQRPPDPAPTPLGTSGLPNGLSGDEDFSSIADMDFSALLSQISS

- Activity [1]: Active
- Activity [2]: Active
- inhibition [3]: inactive
- inhibition [7]: Active
Compound: C=C1[C@H]2O[C@]3([C@@H](C)C(=O)O[C@H]3[C@H]1Cl)[C@@H](OC(C)=O)[C@H]1[C@]3(CC[C@H](OC(C)=O)[C@]1(C)[C@@H](OC(C)=O)[C@@H]2OC(C)=O)CO3
- inhibition at 10 µM (BMDM [4]): 100%
- Activity (RAW264.7): inactive
- Activity (BMDM [5]): Active
- Activity (BMDM [6]): Active
- Activity (Danio rerio): Active
- Activity (BMDM [8]): Active
- inhibition [9]: inactive
- Activity (BMDM [10]): Active
- Activity (BMDM [11]): Active
- Activity (BMDM [12]): Active
- inhibition [13]: Active
